# Measured values taken from paper PMC8492687, “An ethylene biosynthesis enzyme controls quantitative variation in maize ear length and kernel yield” (Nature Communications, 2021).
# Biological target: T1, ZmACO2 (Zea mays, UniProt A0A804UDP7)
# T1 construct: gene LOC100382364
# Experiment: ethylene production by gas chromatography with flame-ionization detection
# Format: biochemical
# Details: 5 mM ascorbate, 20 mM bicarbonate, 0.02 mM iron sulfate, 1 mM DTT, 10% glycerol, MOPS pH 7.2, 30 °C; ACC varied, Michaelis-Menten fit drawn
# T1 sequence (A0A804UDP7 1-326): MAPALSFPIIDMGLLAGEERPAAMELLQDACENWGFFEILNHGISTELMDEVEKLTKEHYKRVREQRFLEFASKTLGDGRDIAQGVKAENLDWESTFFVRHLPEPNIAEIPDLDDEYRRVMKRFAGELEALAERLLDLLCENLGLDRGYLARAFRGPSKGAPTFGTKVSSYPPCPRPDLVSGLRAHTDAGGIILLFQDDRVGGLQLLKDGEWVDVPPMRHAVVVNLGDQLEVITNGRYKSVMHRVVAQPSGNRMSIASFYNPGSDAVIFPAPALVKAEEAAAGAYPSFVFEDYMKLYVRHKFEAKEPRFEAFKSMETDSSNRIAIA
structure (smiles),measurement,value
NC1(C(=O)O)CC1 [ACC],ethylene production by gas chromatography with flame-ionization detection,The amount of ethylene production catalyzed by ZmACO2 increased exponentially up to an ACC concentration
